Laboratory results as given in US20160016907A1, “PYRIDINE DERIVATIVES AS MUSCARINIC M1 RECEPTOR POSITIVE ALLOSTERIC MODULATORS” (PFIZER INC., priority 2014, published 2016).

Molecular target: T1, human M1 muscarinic acetylcholine receptors (Homo sapiens, UniProt P11229)
T1 sequence (P11229 1-460): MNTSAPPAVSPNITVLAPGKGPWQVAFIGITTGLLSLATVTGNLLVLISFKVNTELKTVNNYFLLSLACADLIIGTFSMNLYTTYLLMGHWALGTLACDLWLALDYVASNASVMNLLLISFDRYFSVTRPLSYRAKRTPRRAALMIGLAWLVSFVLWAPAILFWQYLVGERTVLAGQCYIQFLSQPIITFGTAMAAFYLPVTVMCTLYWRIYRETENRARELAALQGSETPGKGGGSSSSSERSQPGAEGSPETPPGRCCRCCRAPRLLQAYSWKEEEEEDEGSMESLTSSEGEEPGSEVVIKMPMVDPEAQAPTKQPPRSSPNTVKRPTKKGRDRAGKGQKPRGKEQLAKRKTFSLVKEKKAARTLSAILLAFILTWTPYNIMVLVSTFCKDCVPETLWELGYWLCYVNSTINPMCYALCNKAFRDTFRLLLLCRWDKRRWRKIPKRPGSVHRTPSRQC
Test: M1 FLIPR assay (PAM, intracellular calcium)
Type: cell-based
Conditions: potentiation of EC10-EC30 acetylcholine, values marked a: geometric mean of ≧7 determinations, read-out: M1 PAM Inflection Point (μM) Geometric mean of 2-6 determinations (unless otherwise indicated)
Experimental: This assay was designed to select and characterize compounds that affect the activity of human M1 muscarinic acetylcholine receptors (Similar M1 PAM FLIPR assays can be found, for example, at U.S. Pat. No. 8,664,234). Human M1 receptors were stably expressed in Chinese hamster ovary (CHO) cells (HD Bioscience). The effect of test compounds on intracellular calcium was measured on an FLIPR Tetra (Molecular Devices) using the Fluo-8, AM calcium dye (Molecular Probes) with a red dye quenching agent (Sigma).
CHO cells expressing hM1 cells had been previously cultured and frozen in assay ready vials. Cell vials were thawed, then plated at a density of 10,000 cells per well in a 384 well black wall, clear bottom plate (Greiner #781090) and incubated overnight at 37 degrees C. with 5% CO2. Cells were grown and plated in F12 nutrient media (Gibco BRL #21700-075) supplemented with 10% FBS (Hyclone #CH30160.03) and Pen/Strep (Gibco #15070-063).
After overnight incubation, cell plates were removed from the incubator and the growth media was discarded and replaced with loading solution containing the following: 2 μM Fluo-8-AM (Molecular Probes #F14242), 2 mM Probenecid (Sigma #P8761), lx Acid Red 1 (Sigma #210633), in HBSS buffer containing (grams/L): 0.1 CaCl2, 0.1 MgCl2*6H2O, 0.049 MgSO4, 0.4 KCl, 0.06 KH2PO4, 8.06 NaCl, 0.12 Na2HPO4*12H2O, 1.1 D-glucose*H2O, 0.35 NaHCO3, 4.766 HEPES, pH 7.4. The plate was incubated in the loading solution at 37 degrees C. in the dark for 1 hour.
Test compounds were initially prepared as 100% DMSO stock solutions, then transferred and serially diluted in 384-well compound plates (Greiner #784201). Each compound was tested at 10 concentrations in duplicate per experiment. Positive and negative controls for positive allosteric modulator evaluation were 30 μM acetylcholine (Ach) and an EC10-EC30 concentration of acetylcholine, approximately 2 nM but could be adjusted for each experiment to maintain the EC10-EC30 range.
After the 1-hour dye loading incubation, test compounds were added to the cell plate containing Fluo-8. Approximately 10 minutes after compound addition, an EC10-EC30 concentration of acetylcholine was added to each well and the fluorescence measured to determine the PAM potentiation of the compound.
Data was exported from the FLIPR Tetra as maximum fluorescence/minimum fluorescence for each well. The percent effect for each compound well was determined using the mean values for the positive and negative controls on each plate for each read. Percent effect was 100*(compound negative control)/(positive control negative control). Dose response curves were fitted to the compound percent effect data using a 4-parameter logistic fit model to determine PAM (positive allosteric modulator) Inflection Point values. Compounds with inverted U dose response curves had the concentrations greater than the concentration giving the peak response excluded from the fit. Data was reported as Inflection Point. The compounds of Examples 1-72 had activity according to this assay, generally with an Inflection Point (IP) of 10 μM or less (using Inflection Point as a measure of activity). Such a result is indicative of the intrinsic activity of the compounds of the invention as M1 allosteric modulators.

Row | SMILES | EC50 [µM]
1 | Cc1cnc(C(=O)N[C@H]2CCOC[C@@H]2O)cc1Cc1ccc(-c2nccs2)cc1 [Example 3, N-[(3R,4S)-3-Hydroxytetrahydro-2H-pyran-4-yl]-5-methyl-4-[4-(1,3-thiazol-2-yl)benzyl]pyridine-2-carboxamide] | 0.101
2 | Cc1cnc(C(=O)N[C@H]2CCCC[C@@H]2O)cc1C(F)c1ccc(-n2cccn2)cc1 (single isomer, unassigned) [Example 64] | 0.033
3 | Cc1cnc(C(=O)N[C@H]2CCOC[C@@H]2O)cc1C(F)c1ccc(-c2cscn2)cc1 (single isomer, unassigned; diastereomer 1) [Example 59] | 1.83
4 | COc1ccc(Cc2cc(C(=O)N[C@H]3CCCC[C@@H]3O)ncc2C)cc1 [Example 50, N-[(1S,2S)-2-hydroxycyclohexyl]-4-(4-methoxybenzyl)-5-methylpyridine-2-carboxamide] | 3.48
5 | Cc1nc(-c2ccc(Cc3cc(C(=O)NC4CCOCC4O)ncc3C)cc2)co1 (single isomer, unassigned; (-)) [Example 10, (−)-N-[(3,4-trans)-3-Hydroxytetrahydro-2H-pyran-4-yl]-5-methyl-4-[4-(2-methyl-1,3-oxazol-4-yl)benzyl]pyridine-2-carboxamide] | 6.34
6 | Cc1cnc(C(=O)NC[C@H](C)O)cc1Cc1ccc(-n2cccn2)cc1 [Example 36, N-[(2S)-2-hydroxypropyl]-5-methyl-4-[4-(1H-pyrazol-1-yl)benzyl]pyridine-2-carboxamide] | 6.65
7 | COc1cnc(C(=O)N[C@H]2CCCC[C@@H]2O)cc1Cc1ccc(-c2coc(C)n2)cc1 [Example 72, N-[(1S,2S)-2-hydroxycyclohexyl]-5-methoxy-4-[4-(2-methyl-1,3-oxazol-4-yl)benzyl]pyridine-2-carboxamide] | 0.142
8 | Cc1cnc(C(=O)NCC2(O)CCC2)cc1Cc1ccc(-n2cccn2)cc1 [Example 44, N-[(1-hydroxycyclobutyl)methyl]-5-methyl-4-[4-(1H-pyrazol-1-yl)benzyl]pyridine-2-carboxamide] | 2.7
9 | Cc1cnc(C(=O)N[C@H](CO)C(C)C)cc1Cc1ccc(-n2cccn2)cc1 [Example 38, N-[(2S)-1-hydroxy-3-methylbutan-2-yl]-5-methyl-4-[4-(1H-pyrazol-1-yl)benzyl]pyridine-2-carboxamide] | 3.63
10 | Cc1cnc(C(=O)NCC2(O)CCCC2)cc1Cc1ccc(-n2cccn2)cc1 [Example 27, N-[(1-hydroxycyclopentyl)methyl]-5-methyl-4-[4-(1H-pyrazol-1-yl)benzyl]pyridine-2-carboxamide] | 1.55
11 | Cc1cnc(C(=O)NC2CCCCC2(F)F)cc1Cc1ccc(-n2cccn2)cc1 (single isomer, unassigned) [Example 47] | 0.57
12 | Cc1cnc(C(=O)NC2CCOCC2O)cc1Cc1ccc(-c2cncs2)cc1 (single isomer, unassigned; ent-2) [Example 5, N-[(3,4-trans)-3-Hydroxytetrahydro-2H-pyran-4-yl]-5-methyl-4-[4-(1,3-thiazol-5-yl)benzyl]pyridine-2-carboxamide, ENT-2] | 0.18
13 | Cc1cnc(C(=O)N[C@H]2CCOC[C@@H]2O)cc1Cc1ccc(-c2cnn(C)c2)nc1 [Example 65, N-[(3R,4S)-3-hydroxytetrahydro-2H-pyran-4-yl]-5-methyl-4-{[6-(1-methyl-1H-pyrazol-4-yl)pyridin-3-yl]methyl}pyridine-2-carboxamide] | 0.18
14 | Cc1nc(-c2ccc(Cc3cc(C(=O)N[C@H]4CCCC[C@@H]4O)ncc3C)cc2)co1 [Example 23, N-[(1S,2S)-2-hydroxycyclohexyl]-5-methyl-4-[4-(2-methyl-1,3-oxazol-4-yl)benzyl]pyridine-2-carboxamide] | 0.363
15 | COc1cnc(C(=O)N[C@H]2CCOC[C@@H]2O)cc1Cc1ccc(-c2cscn2)cc1 [Example 68, N-[(3R,4S)-3-hydroxytetrahydro-2H-pyran-4-yl]-5-methoxy-4-[4-(1,3-thiazol-4-yl)benzyl]pyridine-2-carboxamide] | 0.074
16 | Cc1cnc(C(=O)NC2CCOCC2O)cc1Cc1ccc(-c2cncs2)cc1 (single isomer, unassigned; ent-1) [Example 4, N-[(3,4-trans)-3-Hydroxytetrahydro-2H-pyran-4-yl]-5-methyl-4-[4-(1,3-thiazol-5-yl)benzyl]pyridine-2-carboxamide, ENT-1] | 8.11

Now from value to compound:

Row | EC50 [µM] | SMILES
17 | 2.73 | Cc1cnc(C(=O)NCC2CCCO2)cc1Cc1ccc(-n2cccn2)cc1 (stereo not drawn) [Example 35, 5-methyl-4-[4-(1H-pyrazol-1-yl)benzyl]-N-(tetrahydrofuran-2-ylmethyl)pyridine-2-carboxamide]
18 | 9.25 | Cc1cnc(C(=O)NC[C@H]2CCCO2)cc1Cc1ccc(-n2cccn2)cc1 [Example 43, 5-methyl-4-[4-(1H-pyrazol-1-yl)benzyl]-N-[(2R)-tetrahydrofuran-2-ylmethyl]pyridine-2-carboxamide]
19 | 7.21 | Cc1cnc(C(=O)NCC2CCO2)cc1Cc1ccc(-n2cccn2)cc1 (stereo not drawn) [Example 45, 5-methyl-N-(oxetan-2-ylmethyl)-4-[4-(1H-pyrazol-1-yl)benzyl]pyridine-2-carboxamide]
20 | 0.03 | Cc1cnc(C(=O)N[C@H]2CCOC[C@@H]2O)cc1[C@H](F)c1ccc(-n2cccn2)cc1 [Example 56, 4-{(R)-Fluoro[4-(1H-pyrazol-1-yl)phenyl]methyl}-N-[(3R,4S)-3-hydroxytetrahydro-2H-pyran-4-yl]-5-methylpyridine-2-carboxamide]
21 | 9.64 | Cc1cnc(C(=O)NCC2CC2)cc1Cc1ccc(-n2cccn2)cc1 [Example 40, N-(cyclopropylmethyl)-5-methyl-4-[4-(1H-pyrazol-1-yl)benzyl]pyridine-2-carboxamide]
22 | 3.44 | Cc1cnc(C(=O)NC2CCOCC2)cc1Cc1ccc(-n2cccn2)cc1 [Example 33, 5-methyl-4-[4-(1H-pyrazol-1-yl)benzyl]-N-(tetrahydro-2H-pyran-4-yl)pyridine-2-carboxamide]
23 | 0.052 | Cc1cnc(C(=O)N[C@H]2CCOC[C@@H]2O)cc1Cc1ccc(-c2cnn(C)c2)cc1 [Example 67, N-[(3R,4S)-3-hydroxytetrahydro-2H-pyran-4-yl]-5-methyl-4-[4-(1-methyl-1H-pyrazol-4-yl)benzyl]pyridine-2-carboxamide]
24 | 0.271 | Cc1c[n+]([O-])c(C(=O)N[C@H]2CCOC[C@@H]2O)cc1Cc1ccc(-n2cccn2)cc1 [Example 53, N-[(3R,4S)-3-hydroxytetrahydro-2H-pyran-4-yl]-5-methyl-4-[4-(1H-pyrazol-1-yl)benzyl]pyridine-2-carboxamide 1-oxide]
25 | 4.86 | Cc1cnc(C(=O)N[C@@H]2CCOC[C@H]2O)cc1Cc1ccc(-n2cccn2)cc1 [Example 8, N-[(3S,4R)-3-Hydroxytetrahydro-2H-pyran-4-yl]-5-methyl-4-[4-(1H-pyrazol-1-yl)benzyl]pyridine-2-carboxamide]
26 | 0.116 | Cc1nc(C(=O)N[C@H]2CCOC[C@@H]2O)cc(Cc2ccc(-n3cccn3)cc2)c1Cl [Example 14, 5-Chloro-N-[(3R,4S)-3-hydroxytetrahydro-2H-pyran-4-yl]-6-methyl-4-[4-(1H-pyrazol-1-yl)benzyl]pyridine-2-carboxamide]
27 | 0.109 | Cc1cnc(C(=O)N[C@H]2CCOC[C@@H]2O)cc1Cc1ccc(-n2cccn2)cc1 [Example 9, N-[(3R,4S)-3-Hydroxytetrahydro-2H-pyran-4-yl]-5-methyl-4-[4-(1H-pyrazol-1-yl)benzyl]pyridine-2-carboxamide]
